# From patent US11008603B2, “Method and kit for detecting pathogenic microorganism” (JAPAN SCIENCE AND TECHNOLOGY AGENCY, priority 2016, dated 2021)
# Columns and labels:
# [1] = Test Example 2: influence of buffering substance (DEA) concentration on fluorescence intensity of 4-MU in droplets covered with FC40 over time; assay type: physicochemical; details: 4 mM CaCl2, pH 6.5, 50 μM 4-MU
# Experimental: According to the following procedure, the influence of the concentration of a buffering substance of a hydrophilic solvent on detection sensitivity was studied. 4-MU was dissolved in a concentration of 50 μM in a buffer solution (4 mM CaCl2, pH 6.5) having a DEA concentration adjusted to 25 mM to 1M. Into the array, 30 μL of the buffer solution in which 4-MU was dissolved was introduced, to fill each of the wells with the buffer solution (see FIG. 1A). Then, into the array, 200 μL of a hydrophobic solvent (FC40) was introduced, to form a droplet of the hydrophilic solvent covered with the hydrophobic solvent in each of the wells. Time-lapse photographing was performed under a fluorescence microscope to measure fluorescence intensity of each of the droplets.
# [2] = cited from earlier work
# [3] = Test Example 1: influence of pH value of hydrophilic solvent on fluorescence detection of 4-MU in droplets covered with FC40; assay type: physicochemical; details: 50 μM 4-MU, 33 mM DEA-HCl, 4 mM CaCl2; buffer pH set higher than pKa (pH 8 or more) within pH 6.5 to 9.0; FC40 cover
# Text: According to the following procedure, the influence of the pH value of a hydrophilic solvent on detection sensitivity was studied.
# First, according to a report by Kim et al. (“Quantifying genetically inserted fluorescent protein in single iPS cells to monitor Nanog expression using electroactive microchamber arrays”, Lab on Chip, 2014, Issue 4, Vol. 14, and p. 730-736), a droplet array device (DAD) was produced. A cover glass (24 mm×32 mm) was washed and dried. The cover glass was then spin-coated with an amorphous fluorine resin (CYTOP 816AP, AGC Inc.), and fired at 180° C. for 1 hour. The cover glass coated with the amorphous fluorine resin was spin-coated with a positive type photoresist (AZ-4903, AZ Electronic Materials), fired at 55° C. for 3 minutes, and then further fired at 110° C. for 5 minutes. The cover glass was subjected to photolithography by use of a photomask having holes each having a diameter of 3 μm at intervals of 5 μm. The cover glass was dry-etched with oxygen plasma, and then washed to obtain as the DAD. […]
# With a CMOS camera (Neo sCMOS, Andor) connected to a fluorescence microscope (IX8, OLYMPUS), a fluorescent image of each of the droplets was photographed to measure fluorescence intensity. […] The fluorescent image was analyzed with an imaging analysis software (Meta-Morph, Molecular Devices), to calculate fluorescence intensity.
Molecule,fluorescence intensity over time ([1]; DEA 25 mM),"fluorescence intensity over time ([1]; DEA 50 mM, for 10 minutes)","decrease in the fluorescence intensity over time ([1]; DEA 100 mM, for 30 minutes)","decrease in the fluorescence intensity over time ([1]; DEA 500 mM, for 30 minutes)","decrease in the fluorescence intensity over time ([1]; DEA 1 M, after subtraction of fading due to exposure)",acid dissociation constant (pKa) [2],fluorescence detection sensitivity in droplet (distribution/leakage to FC40) [3]
"Cc1cc(=O)oc2cc(O)ccc12 [4MU, 4-methylumbelliferone]",decrease in the fluorescence intensity was observed,maintained,significantly suppressed,significantly suppressed,not observed,7.79,detected with higher sensitivity
O=c1ccc2nc3ccc(O)cc3oc-2c1 [resorufin],,,,,,6.0,
CCN(CC)c1ccc2c(-c3ccccc3C(=O)O)c3ccc(=[N+](CC)CC)cc-3oc2c1.[Cl-] [rhodamine],,,,,,6.0,
fluorescein,,,,,,6.4,
